{"source": "patent US20030153618A1", "about": "“Treatment and prevention of herpes simplex infections” (priority 1999, published 2003)", "key": {"[1]": {"tested_on": "Herpes simplex II virus", "assay": "Back titration plaque assay: PFU counts at stated amounts of compound under test and arginine", "assay_type": "cell-based, Herpes simplex II virus (BSC cells)", "experimental": "The following experiments were conducted by back titration: Herpes simplex II virus from laboratory stocks was used. BSC cells were grown to confluence in Eagles medium with 15% fetal calf serum, 150 units per milliliter of penicillin and 100 micrograms per milliliter of streptomycin. The cultures were inoculated with 500 PFU of HS II. The virons were allowed to absorb for one hour at 25° C. The tissue cultures were then washed three times with sterile PBS to remove excess media and non-absorbed virons. The cells were then incubated at 37° C. until four-plus cytopathic effects were observed. The cells were then disrupted by slow freeze-thaw two times. The suspension was then clarified by slow speed centrifugation at 4° C. The supemanant suspension was then added to confluent BSC cultures. After one hour absorption, the cells were washed with PBS twice. The cells were overlaid in defined reagent (in triplicate) Eagles media in noble agar. The cells were then incubated at 37° C. until the plaques were easily counted, usually 40 t 72 hours. the cells were then washed two times with PBS and then fixed with 10% H2CO and a 2% sodium acetate. The cells were then stained in 0.1% crystal violet in ethanol. In the tables which follow the concentration of the compound to be tested, in micrograms per milliliter, is listed across the top of the table and the concentration of arginine in micrograms per milliliter is listed down the left side of the table, the count of plaque-forming units being shown in the matrix."}, "[2]": {"tested_on": "HSV, Type II", "assay": "Direct plaque-forming unit (PFU) count in BSC cells in defined media with set lysine (or derivative):arginine ratio", "assay_type": "cell-based", "conditions": "average of three tests", "experimental": "Absorbed virons were absorbed in susceptible cells in chemically defined media and the number of plaques made were counted. (See Davis, B. D., et al., Microbiology, 2nd Ed., Harper & Row, 1973, Part V, and sources cited therein for procedural details and discussion of the plaque method.)\nThe cell line chosen was green monkey kidney cells (BSC) that have been passed greater than 41 times. […] The virons were added to a confluent lawn of BSC cells and allowed to absorb at 25° C. for one hour. The unabsorbed virons and the media were removed by washing three times in PBS. […] The control media contained a lysine/arginine ratio of 1:1. The plaques were counted when easily readable. Flasks are done in triplicate."}}, "data": [{"smiles": "CC(CN)CC[C@H](N)C(=O)O", "note": "(stereo partly drawn) [5-Methyl lysine]", "values": [{"measurement": "P.F.U. Count", "setting": "[1]; compound 10 μg/ml, arginine 0 μg/ml", "result": 30}, {"measurement": "P.F.U. Count", "setting": "[1]; compound 10 μg/ml, arginine 2.5 μg/ml", "result": "2.7 × 10^3"}, {"measurement": "P.F.U. Count", "setting": "[1]; compound 10 μg/ml, arginine 5.0 μg/ml", "result": "3.7 × 10^4"}, {"measurement": "P.F.U. Count", "setting": "[1]; compound 10 μg/ml, arginine 7.5 μg/ml", "result": "6.0 × 10^4"}, {"measurement": "P.F.U. Count", "setting": "[1]; compound 10 μg/ml, arginine 10 μg/ml", "result": "7.9 × 10^4"}, {"measurement": "P.F.U. Count", "setting": "[1]; compound 10 μg/ml, arginine 15 μg/ml", "result": "2.0 × 10^5"}, {"measurement": "P.F.U. Count", "setting": "[1]; compound 10 μg/ml, arginine 20 μg/ml", "result": "3.0 × 10^5"}, {"measurement": "P.F.U. Count", "setting": "[1]; compound 10 μg/ml, arginine 25 μg/ml", "result": "3.0 × 10^5"}, {"measurement": "P.F.U. Count", "setting": "[1]; compound 25 μg/ml, arginine 0 μg/ml", "result": 0}, {"measurement": "P.F.U. Count", "setting": "[1]; compound 25 μg/ml, arginine 2.5 μg/ml", "result": 697}, {"measurement": "P.F.U. Count", "setting": "[1]; compound 25 μg/ml, arginine 5.0 μg/ml", "result": "1.4 × 10^3"}, {"measurement": "P.F.U. Count", "setting": "[1]; compound 25 μg/ml, arginine 7.5 μg/ml", "result": "4.7 × 10^3"}, {"measurement": "P.F.U. Count", "setting": "[1]; compound 25 μg/ml, arginine 10 μg/ml", "result": "6.5 × 10^4"}, {"measurement": "P.F.U. Count", "setting": "[1]; compound 25 μg/ml, arginine 15 μg/ml", "result": "1.7 × 10^4"}, {"measurement": "P.F.U. Count", "setting": "[1]; compound 25 μg/ml, arginine 20 μg/ml", "result": "3.1 × 10^5"}, {"measurement": "P.F.U. Count", "setting": "[1]; compound 25 μg/ml, arginine 25 μg/ml", "result": "3.0 × 10^5"}, {"measurement": "P.F.U. Count", "setting": "[1]; compound 50 μg/ml, arginine 0 μg/ml", "result": 0}, {"measurement": "P.F.U. Count", "setting": "[1]; compound 50 μg/ml, arginine 2.5 μg/ml", "result": 0}, {"measurement": "P.F.U. Count", "setting": "[1]; compound 50 μg/ml, arginine 5.0 μg/ml", "result": 190}, {"measurement": "P.F.U. Count", "setting": "[1]; compound 50 μg/ml, arginine 7.5 μg/ml", "result": 190}, {"measurement": "P.F.U. Count", "setting": "[1]; compound 50 μg/ml, arginine 10 μg/ml", "result": "1.7 × 10^3"}, {"measurement": "P.F.U. Count", "setting": "[1]; compound 50 μg/ml, arginine 15 μg/ml", "result": "1.3 × 10^3"}, {"measurement": "P.F.U. Count", "setting": "[1]; compound 50 μg/ml, arginine 20 μg/ml", "result": "3.0 × 10^5"}, {"measurement": "P.F.U. Count", "setting": "[1]; compound 50 μg/ml, arginine 25 μg/ml", "result": "3.0 × 10^5"}, {"measurement": "P.F.U. Count", "setting": "[1]; compound 100 μg/ml, arginine 0 μg/ml", "result": 0}, {"measurement": "P.F.U. Count", "setting": "[1]; compound 100 μg/ml, arginine 2.5 μg/ml", "result": 0}, {"measurement": "P.F.U. Count", "setting": "[1]; compound 100 μg/ml, arginine 5.0 μg/ml", "result": 69}, {"measurement": "P.F.U. Count", "setting": "[1]; compound 100 μg/ml, arginine 7.5 μg/ml", "result": 170}, {"measurement": "P.F.U. Count", "setting": "[1]; compound 100 μg/ml, arginine 10 μg/ml", "result": 656}, {"measurement": "P.F.U. Count", "setting": "[1]; compound 100 μg/ml, arginine 15 μg/ml", "result": 710}, {"measurement": "P.F.U. Count", "setting": "[1]; compound 100 μg/ml, arginine 20 μg/ml", "result": "1.2 × 10^5"}, {"measurement": "P.F.U. Count", "setting": "[1]; compound 100 μg/ml, arginine 25 μg/ml", "result": "2.4 × 10^5"}, {"measurement": "P.F.U. Count", "setting": "[1]; compound 200 μg/ml, arginine 0 μg/ml", "result": 0}, {"measurement": "P.F.U. Count", "setting": "[1]; compound 200 μg/ml, arginine 2.5 μg/ml", "result": 0}, {"measurement": "P.F.U. Count", "setting": "[1]; compound 200 μg/ml, arginine 5.0 μg/ml", "result": 0}, {"measurement": "P.F.U. Count", "setting": "[1]; compound 200 μg/ml, arginine 7.5 μg/ml", "result": 0}, {"measurement": "P.F.U. Count", "setting": "[1]; compound 200 μg/ml, arginine 10 μg/ml", "result": 79}, {"measurement": "P.F.U. Count", "setting": "[1]; compound 200 μg/ml, arginine 15 μg/ml", "result": 63}, {"measurement": "P.F.U. Count", "setting": "[1]; compound 200 μg/ml, arginine 20 μg/ml", "result": "2.7 × 10^5"}, {"measurement": "P.F.U. Count", "setting": "[1]; compound 200 μg/ml, arginine 25 μg/ml", "result": "4.1 × 10^5"}, {"measurement": "P.F.U. Count", "setting": "[1]; compound 300 μg/ml, arginine 0 μg/ml", "result": 0}, {"measurement": "P.F.U. Count", "setting": "[1]; compound 300 μg/ml, arginine 2.5 μg/ml", "result": 0}, {"measurement": "P.F.U. Count", "setting": "[1]; compound 300 μg/ml, arginine 5.0 μg/ml", "result": 0}, {"measurement": "P.F.U. Count", "setting": "[1]; compound 300 μg/ml, arginine 7.5 μg/ml", "result": 0}, {"measurement": "P.F.U. Count", "setting": "[1]; compound 300 μg/ml, arginine 10 μg/ml", "result": 0}, {"measurement": "P.F.U. Count", "setting": "[1]; compound 300 μg/ml, arginine 15 μg/ml", "result": "1.9 × 10^4"}, {"measurement": "P.F.U. Count", "setting": "[1]; compound 300 μg/ml, arginine 20 μg/ml", "result": "5.6 × 10^4"}, {"measurement": "P.F.U. Count", "setting": "[1]; compound 300 μg/ml, arginine 25 μg/ml", "result": "6.1 × 10^4"}, {"measurement": "P.F.U. Count", "setting": "[1]; compound 400 μg/ml, arginine 0 μg/ml", "result": 0}, {"measurement": "P.F.U. Count", "setting": "[1]; compound 400 μg/ml, arginine 2.5 μg/ml", "result": 0}, {"measurement": "P.F.U. Count", "setting": "[1]; compound 400 μg/ml, arginine 5.0 μg/ml", "result": 0}, {"measurement": "P.F.U. Count", "setting": "[1]; compound 400 μg/ml, arginine 7.5 μg/ml", "result": 0}, {"measurement": "P.F.U. Count", "setting": "[1]; compound 400 μg/ml, arginine 10 μg/ml", "result": 0}, {"measurement": "P.F.U. Count", "setting": "[1]; compound 400 μg/ml, arginine 15 μg/ml", "result": "1.9 × 10^4"}, {"measurement": "P.F.U. Count", "setting": "[1]; compound 400 μg/ml, arginine 20 μg/ml", "result": "1.7 × 10^4"}, {"measurement": "P.F.U. Count", "setting": "[1]; compound 400 μg/ml, arginine 25 μg/ml", "result": "4.6 × 10^4"}, {"measurement": "P.F.U. Count", "setting": "[1]; compound 500 μg/ml, arginine 0 μg/ml", "result": 0}, {"measurement": "P.F.U. Count", "setting": "[1]; compound 500 μg/ml, arginine 2.5 μg/ml", "result": 0}, {"measurement": "P.F.U. Count", "setting": "[1]; compound 500 μg/ml, arginine 5.0 μg/ml", "result": 0}, {"measurement": "P.F.U. Count", "setting": "[1]; compound 500 μg/ml, arginine 7.5 μg/ml", "result": 0}, {"measurement": "P.F.U. Count", "setting": "[1]; compound 500 μg/ml, arginine 10 μg/ml", "result": 0}, {"measurement": "P.F.U. Count", "setting": "[1]; compound 500 μg/ml, arginine 15 μg/ml", "result": "1.0 × 10^4"}, {"measurement": "P.F.U. Count", "setting": "[1]; compound 500 μg/ml, arginine 20 μg/ml", "result": "2.3 × 10^3"}, {"measurement": "P.F.U. Count", "setting": "[1]; compound 500 μg/ml, arginine 25 μg/ml", "result": "4.0 × 10^4"}, {"measurement": "P.F.U. Count", "setting": "[2]; Compound Ratio to Arginine 10:1", "result": 79}, {"measurement": "P.F.U. Count", "setting": "[2]; Compound Ratio to Arginine 100:1", "result": 43}]}]}
